#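 A five-concentration, 48-hour dose response in 96-well plates underlies each endpoint, interpolated linearly between surrounding concentrations. Abbreviation: GI50, concentration required for 50% inhibition of growth. TGI is the concentration that stops growth completely.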
# Experiments:
# Experiment in all cases: inhibition of tumour cell growth, NCI panel, 48 h
# ACHN renal = system: ACHN renal
# MDA-MB-435 = system: MDA-MB-435
# RXF 393 renal = system: RXF 393 renal
# SK-MEL-28 melanoma = system: SK-MEL-28 melanoma
# SNB-75 CNS = system: SNB-75 CNS
# CAKI-1 renal = system: CAKI-1 renal
# MDA-MB-468 breast = system: MDA-MB-468 breast
# UO-31 renal = system: UO-31 renal
# HOP-92 NSCLC = system: HOP-92 NSCLC
# COLO 205 colon = system: COLO 205 colon
# TK-10 renal = system: TK-10 renal
# MOLT-4 leukemia = system: MOLT-4 leukemia
# HS 578T breast = system: HS 578T breast
# A498 renal = system: A498 renal
# PC-3 prostate = system: PC-3 prostate
# SNB-19 CNS = system: SNB-19 CNS
# UACC-257 melanoma = system: UACC-257 melanoma
# K-562 leukemia = system: K-562 leukemia
# OVCAR-3 ovarian = system: OVCAR-3 ovarian
# SK-MEL-2 melanoma = system: SK-MEL-2 melanoma
# NCI-H23 lung = system: NCI-H23 lung
# NCI-H226 lung = system: NCI-H226 lung
# NCI-H460 lung = system: NCI-H460 lung
# MDA-MB-231 breast = system: MDA-MB-231 breast
# HCT-15 colon = system: HCT-15 colon
# SN12C renal = system: SN12C renal
# 786-0 renal = system: 786-0 renal
# MCF7 breast = system: MCF7 breast
# KM12 colon = system: KM12 colon
# BT-549 breast = system: BT-549 breast
# OVCAR-8 ovarian = system: OVCAR-8 ovarian
# OVCAR-4 ovarian = system: OVCAR-4 ovarian
# HT29 colon = system: HT29 colon
# SK-OV-3 ovarian = system: SK-OV-3 ovarian
# M14 melanoma = system: M14 melanoma
# HCT-116 colon = system: HCT-116 colon
# U251 CNS = system: U251 CNS
# EKVX NSCLC = system: EKVX NSCLC
# T-47D breast = system: T-47D breast
# HCC-2998 colon = system: HCC-2998 colon
# SF-539 CNS = system: SF-539 CNS
# SF-268 CNS = system: SF-268 CNS
# IGROV1 ovarian = system: IGROV1 ovarian
# SF-295 CNS = system: SF-295 CNS
# RPMI-8226 leukemia = system: RPMI-8226 leukemia
# SW-620 colon = system: SW-620 colon
# A549 NSCLC = system: A549 NSCLC
# CCRF-CEM leukemia = system: CCRF-CEM leukemia
# HL-60(TB) leukemia = system: HL-60(TB) leukemia
# OVCAR-5 ovarian = system: OVCAR-5 ovarian
# MALME-3M melanoma = system: MALME-3M melanoma
# SK-MEL-5 melanoma = system: SK-MEL-5 melanoma
# NCI-H522 lung = system: NCI-H522 lung
# SR leukemia = system: SR leukemia
# HOP-62 NSCLC = system: HOP-62 NSCLC
# LOX IMVI melanoma = system: LOX IMVI melanoma
# DU-145 prostate = system: DU-145 prostate
# UACC-62 melanoma = system: UACC-62 melanoma
smiles,measurement,setting,value
O=C(Nc1ccc(F)c(Cl)c1)c1cc(-c2ccc(F)cc2F)ccc1O,GI50,ACHN renal,2.42 µM
same,TGI,ACHN renal,10.3 µM
same,GI50,MDA-MB-435,2.17 µM
same,TGI,MDA-MB-435,7.05 µM
same,GI50,RXF 393 renal,1.65 µM
same,TGI,RXF 393 renal,5.45 µM
same,GI50,SK-MEL-28 melanoma,2.2 µM
same,TGI,SK-MEL-28 melanoma,9.94 µM
same,GI50,SNB-75 CNS,1.05 µM
same,TGI,SNB-75 CNS,4.68 µM
same,GI50,CAKI-1 renal,1.5 µM
same,TGI,CAKI-1 renal,4.97 µM
same,GI50,MDA-MB-468 breast,2.1 µM
same,TGI,MDA-MB-468 breast,5.51 µM
same,GI50,UO-31 renal,2.49 µM
same,TGI,UO-31 renal,12.3 µM
same,GI50,HOP-92 NSCLC,1.56 µM
same,TGI,HOP-92 NSCLC,5.45 µM
same,GI50,COLO 205 colon,5.11 µM
same,TGI,COLO 205 colon,17.6 µM
same,GI50,TK-10 renal,3.57 µM
same,TGI,TK-10 renal,13.5 µM
same,GI50,MOLT-4 leukemia,1.77 µM
same,TGI,MOLT-4 leukemia,5.47 µM
same,GI50,HS 578T breast,1.93 µM
same,TGI,HS 578T breast,6.55 µM
same,GI50,A498 renal,2.27 µM
same,TGI,A498 renal,6.31 µM
same,GI50,PC-3 prostate,3.08 µM
same,TGI,PC-3 prostate,13.4 µM
same,GI50,SNB-19 CNS,2.95 µM
same,TGI,SNB-19 CNS,19.1 µM
same,GI50,UACC-257 melanoma,1.67 µM
same,TGI,UACC-257 melanoma,6.15 µM
same,GI50,K-562 leukemia,2.01 µM
same,TGI,K-562 leukemia,11.9 µM
same,GI50,OVCAR-3 ovarian,2.98 µM
same,TGI,OVCAR-3 ovarian,12.9 µM
same,GI50,SK-MEL-2 melanoma,1.4 µM
same,TGI,SK-MEL-2 melanoma,3.71 µM
same,GI50,NCI-H23 lung,1.69 µM
same,TGI,NCI-H23 lung,4.8 µM
same,GI50,NCI-H226 lung,2.1 µM
same,TGI,NCI-H226 lung,7 µM
same,GI50,NCI-H460 lung,2.19 µM
same,TGI,NCI-H460 lung,8.82 µM
same,GI50,MDA-MB-231 breast,1.96 µM
same,TGI,MDA-MB-231 breast,4.62 µM
same,GI50,HCT-15 colon,2.31 µM
same,TGI,HCT-15 colon,10.2 µM
same,GI50,SN12C renal,2.18 µM
same,TGI,SN12C renal,8.26 µM
same,GI50,786-0 renal,2.75 µM
same,TGI,786-0 renal,9.2 µM
same,GI50,MCF7 breast,2.48 µM
same,TGI,MCF7 breast,13.9 µM
same,GI50,KM12 colon,2.57 µM
same,TGI,KM12 colon,6.83 µM
same,GI50,BT-549 breast,1.59 µM
same,TGI,BT-549 breast,4.05 µM
same,GI50,OVCAR-8 ovarian,3.1 µM
same,TGI,OVCAR-8 ovarian,13.3 µM
same,GI50,OVCAR-4 ovarian,2.49 µM
same,TGI,OVCAR-4 ovarian,15.2 µM
same,GI50,HT29 colon,4.79 µM
same,TGI,HT29 colon,26.8 µM
same,GI50,SK-OV-3 ovarian,2.06 µM
same,TGI,SK-OV-3 ovarian,6.07 µM
same,GI50,M14 melanoma,2.3 µM
same,TGI,M14 melanoma,6.88 µM
same,GI50,HCT-116 colon,2.04 µM
same,TGI,HCT-116 colon,5.62 µM
same,GI50,U251 CNS,3.01 µM
same,TGI,U251 CNS,12.5 µM
same,GI50,EKVX NSCLC,2.71 µM
same,TGI,EKVX NSCLC,12.7 µM
same,GI50,T-47D breast,1.86 µM
same,TGI,T-47D breast,6.61 µM
same,GI50,HCC-2998 colon,3.28 µM
same,TGI,HCC-2998 colon,11.6 µM
same,GI50,SF-539 CNS,2.58 µM
same,TGI,SF-539 CNS,10.6 µM
same,GI50,SF-268 CNS,2.23 µM
same,TGI,SF-268 CNS,9.68 µM
same,GI50,IGROV1 ovarian,3.25 µM
same,TGI,IGROV1 ovarian,27 µM
same,GI50,SF-295 CNS,2.42 µM
same,TGI,SF-295 CNS,6.2 µM
same,GI50,RPMI-8226 leukemia,1.67 µM
same,TGI,RPMI-8226 leukemia,9.57 µM
same,GI50,SW-620 colon,3.05 µM
same,TGI,SW-620 colon,11.9 µM
same,GI50,A549 NSCLC,2.95 µM
same,TGI,A549 NSCLC,15.1 µM
same,GI50,CCRF-CEM leukemia,3.34 µM
same,TGI,CCRF-CEM leukemia,> 100 µM
same,GI50,HL-60(TB) leukemia,1.78 µM
same,TGI,HL-60(TB) leukemia,4.44 µM
same,GI50,OVCAR-5 ovarian,3.39 µM
same,TGI,OVCAR-5 ovarian,38.9 µM
same,GI50,MALME-3M melanoma,1.91 µM
same,TGI,MALME-3M melanoma,5.3 µM
same,GI50,SK-MEL-5 melanoma,0.832 µM
same,TGI,SK-MEL-5 melanoma,2.21 µM
same,GI50,NCI-H522 lung,1.74 µM
same,TGI,NCI-H522 lung,7.65 µM
same,GI50,SR leukemia,2.39 µM
same,TGI,SR leukemia,9.53 µM
same,GI50,HOP-62 NSCLC,2.24 µM
same,TGI,HOP-62 NSCLC,5.38 µM
same,GI50,LOX IMVI melanoma,2.89 µM
same,TGI,LOX IMVI melanoma,8.25 µM
same,GI50,DU-145 prostate,3.01 µM
same,TGI,DU-145 prostate,> 100 µM
same,GI50,UACC-62 melanoma,1.29 µM
same,TGI,UACC-62 melanoma,3.72 µM

# — PubChem BioAssay (NCI)
